Experimental data taken from patent publication US20070141687A1, “Increase in stress tolerance with ascorbic acid during fermentation” (priority 2005, published 2007).
Read-outs that look alike come from different tables or passages of the source.

Experiments:
YML007w yeast [1] = system: YML007w yeast
Description: Yeast strains used were S. cerevisiae GRF18U (Brambilla, L. et al., 1999, FEMS Microb. Lett. 171, 133-140), S. cerevisiae GRFc (Brambilla et al. 1999 FEMS Microb. Lett. 171: 133-140), S. cerevisiae BY4742 (MATα; his3; leu2, lys2; ura3, EuroScarf Accession No. Y10000), S. cerevisiae YML007w (BY4742; MATα; his3; leu2, lys2; ura; YML007w::KanMX4 (the yap1 deleted strain) EuroScarf Accession No. Y10569); CEN.PK 113-5D (MATα ura3-52; cir+) (see, for example, VanDijken et al. (2000) Enzyme Microb. Technol. 26, 706-714); and BY4741 (MATα; his3; leu2; met 15; ura3, Euroscarf Accession No. Y00000), or strains derived from them through transformation with the different developed plasmids. All strains were cultivated in shake flasks in minimal medium (0.67% w/v YNB (Difco Laboratories, Detroit, Mich. #919-15), 2% w/v glucose or mannose, with addition of the appropriate amino acids or adenine or uracil, respectively, to 50 μL-^1) and/or the appropriate antibiotic (G418 or hygromicin to 500 mg/l and 400 mg/l, respectively) under standard conditions (shaking at 30° C.). The initial optical density at 660 nm was about 0.05 for ascorbic acid determination, and 0.1 for the kinetics of the recovery from oxidative stress.
The yeast strains were grown on mineral medium (2% glucose, 0.67% YNB) starting from an OD^660 of 0.1. […]

[2] = system: GRFc, BY4741, and CEN.PK 113-5D yeast strains; experiment: Growth of wild type yeast strains in medium containing lactic acid at pH 3 with added ascorbic acid; conditions: 2xYNB medium, lactic acid 40 g/l, pH3
Description: Ascorbic acid was added to the medium at the concentrations shown.

YML007w yeast [3] = experiment: Growth (OD660) of yap1-deleted yeast under H2O2 oxidative stress with ascorbic acid in the medium; format: cell-based, S. cerevisiae; conditions: 0.8 or 1.0 mM H2O2; ascorbic acid added at T=0 at 15 mg/L; minimal medium 2% glucose
Description: FIG. 3A. […] Ascorbic acid was added at T=0 at a final concentration of 15 mg/L. BY4742 (▴); YML007w (◯).
FIG. 3B. […] Ascorbic acid was added at T=0 at a final concentration of 15 mg/L. BY4742 (▴); YML007w (◯).

[4] = system: S. cerevisiae strain NRRL Y-30696; experiment: Growth and lactic acid production of lactic acid producing yeast with exogenous ascorbic acid; format: cell-based; conditions: minimal glucose medium, 2.78 g/L CaCO3, 0, 0.16, 0.3 or 0.6 g/L ascorbic acid
Description: S. cerevisiae strain NRRL Y-30696 was inoculated in minimal glucose medium and 2.78 g/L CaCO3 or minimal glucose medium with 2.78 g/L CaCO3 and 0.16, 0.3, or 0.6 g/L ascorbic acid. OD660 (open symbols) and lactic acid (closed symbols) were monitored with time. The pH dropped in each case to 2.5 at 67 hours.

Row | SMILES | growth of YML007w yeast host (YML007w yeast [1]; 0.8 mM hydrogen peroxide in medium) | growth of YML007w yeast host (YML007w yeast [1]; 1 mM hydrogen peroxide in medium) | dose dependence of the effect of ascorbic acid on growth [2] | effect on growth inhibition by lactic acid (OD660) ([2]; zero or increasing ascorbic acid) | growth sensitivity of YML007w yeast to H2O2 (OD660) (YML007w yeast [3]) | lactic acid production [4] | growth as measured by OD660 ([4]; pH dropped to 2.5 at 67 hours)
1 | OO [hydrogen peroxide] | strongly delayed | completely impaired | – | – | – | – | –
2 | O=C1O[C@H]([C@@H](O)CO)C(O)=C1O [ascorbic acid, L-ascorbic acid] | – | – | dose dependent | negative effects of lactic acid on growth can be overcome | can be rescued | equivalent at each level | increased with increasing ascorbic acid
